Data set [1] can be described thus: physchem.
Description: Dissociation constant, pKa of the compound by spectrophotometric analysis
For data set [2] the following is noted: octanol/water.
Description: Lipophilic-hydrophilic balance, Rm of the compound by TLC analysis
The conditions of data set [3]: buffer.
Description: Solubility of the compound in water
Data set [4] deals with Escherichia coli. As to the kind of experiment: microbe, parasite or virus in culture. The settings on record: 24 h, read-out: ID50.
Description: Antimicrobial activity against Escherichia coli assessed as growth inhibition after 24 hrs by turbidimetric analysis
Data set [5] relates to Enterococcus faecalis. As to the kind of experiment: Induction of Streptococcus faecalis growth. In kind it is functional, organism-based.
In a further data set the target is Albumin (Homo sapiens, UniProt P02768). As to the kind of experiment: Binding affinity to human serum albumin at 100 umol/l by equilibrium dialysis technique. In kind it is ADME. The settings on record: isolated protein, 100 µM. (In general: In equilibrium dialysis only unbound substance equilibrates across the membrane.)
Chain of Albumin (P02768 whole entry): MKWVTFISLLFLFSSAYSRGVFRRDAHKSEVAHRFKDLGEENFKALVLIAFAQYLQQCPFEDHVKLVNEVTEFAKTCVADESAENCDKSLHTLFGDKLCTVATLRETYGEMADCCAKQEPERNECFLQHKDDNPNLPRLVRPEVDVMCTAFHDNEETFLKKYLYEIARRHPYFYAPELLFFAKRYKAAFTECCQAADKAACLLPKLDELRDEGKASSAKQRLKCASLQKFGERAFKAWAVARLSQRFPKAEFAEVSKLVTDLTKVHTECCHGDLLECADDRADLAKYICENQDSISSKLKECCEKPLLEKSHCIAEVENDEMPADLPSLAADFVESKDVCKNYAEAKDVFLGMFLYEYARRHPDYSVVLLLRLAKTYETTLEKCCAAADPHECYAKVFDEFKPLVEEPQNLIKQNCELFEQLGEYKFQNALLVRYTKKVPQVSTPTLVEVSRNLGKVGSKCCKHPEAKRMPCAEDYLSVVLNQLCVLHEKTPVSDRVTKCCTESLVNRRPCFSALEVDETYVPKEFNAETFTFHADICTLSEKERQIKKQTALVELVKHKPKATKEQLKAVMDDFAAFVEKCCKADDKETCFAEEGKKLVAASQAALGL
Data set [6] in a line: physchem. The settings on record: aqueous solution.
Description: Hydrolytic dissociation constant, pKa of the compound in aqueous solution at 50 degC
Data set [7] concerns Escherichia coli. As to the kind of experiment: Inhibition of Escherichia coli dihydropteroic acid synthesizing system-mediated folate production at 50 to 250 umol/l.
Data set [8] deals with Escherichia coli. As to the kind of experiment: Reversal of sulfabenzene-mediated growth inhibition of Escherichia coli at 4 to 400 umol/l. In kind it is functional, organism-based.
Data set [9] concerns Escherichia coli. As to the kind of experiment: Reversal of sulfapyridine-mediated growth inhibition of Escherichia coli at 4 to 400 umol/l. The data set is classed as functional, organism-based.
The subject of data set [10] is Enterococcus faecalis. As to the kind of experiment: Growth inhibition of Streptococcus faecalis. In kind it is functional, organism-based.

Calls of active or inactive are those of the source. The rule behind the calls is not given here.

On to `CCCCCCCCOc1cc(N)ccc1C(=O)O`, for which the pKa in “physchem [1]” came to 5.4. In addition, the Rm in data set [2] was determined as 4.25. In addition, in data set [3], the solubility result was “soluble”. In addition, in the data set with Escherichia coli [4], the IC50 was found to be 25 µM.
As to `Nc1nc(=O)c2nc(CNc3ccc(C(=O)O)c(F)c3)cnc2[nH]1`, the outcome with Enterococcus faecalis [5] was Active.
`Nc1ccc(C(=O)O)cc1I`: in “physchem [1]”, the pKa is 4.34. The compound further gave a Rm in data set [2] of 2.95. Further, the “log(PB)” value on Albumin came to 1.92. Also, in the data set on Escherichia coli [4], the IC50 amounted to 110 µM.
In the case of `Cl.Nc1ccc(C(=O)O)c(N)c1`, the pKa in “physchem [1]” stood at 5.81. The “log(PB)” value on Albumin came to 1. In addition, the IC50 with Escherichia coli [4] is 3.5 µM.
In the case of `C=CCOc1cc(N)ccc1C(=O)O`, the pKa in the data set “physchem [1]” stood at 5.01. The Rm in data set [2] amounted to 1.68. For the same compound, the “log(PB)” value on Albumin came out at 1.63. The solubility result in [3] is “soluble”. Moreover, the IC50 in the data set with Escherichia coli [4] was 125 µM.
For `CCOc1cc(N)ccc1C(=O)O` the same measures were 5.09, 1.31, 1.56, “soluble” and 130 µM.
With `Nc1ccc(C(=O)O)c([N+](=O)[O-])c1`, the pKa in “physchem [1]” was 2.78; in the data set “physchem [6]” it was 3.22. This compound also came in with a Rm in data set [2] of 2.3. Also, the “log(PB)” value on Albumin came out at 1.33. Besides, the IC50 in the data set on Escherichia coli [4] is 100 µM.
For the compound `Nc1ccc(C(=O)O)cc1` [AMINOBENZOIC ACID], the Rm in [2] was 1.21. Moreover, the pKa in the data set “physchem [6]” is 4.67.
For `Nc1ccc(C(=O)O)cc1C(=O)O`, the “log(PB)” value on Albumin is reported as 1.82. The IC50 in the data set on Escherichia coli [4] worked out at 120 µM.
Compound `Nc1ccc(C(=O)O)cc1F` yielded a pKa in “physchem [1]” of 4.35. Further, the Rm in data set [2] was 1.66. Further, the inhibition entry with Escherichia coli [7] was “Active”. The “log(PB)” value at Albumin is 1.52. The IC50 with Escherichia coli [4] turned out to be 13 µM.
In the data set “physchem [1]”, `Cl.Nc1ccc(C(=O)O)c(I)c1` yielded a pKa of 3.81. Also, in [2], the Rm came to 2.4. In addition, on Albumin, the “log(PB)” value is reported as 1.79. Moreover, the IC50 in the data set on Escherichia coli [4] stood at 30 µM.
Regarding `CCCCOc1cc(N)ccc1C(=O)O`, the pKa in the data set “physchem [1]” came to 5.25. The Rm in data set [2] is reported as 2.4. For the same compound, the “log(PB)” value on Albumin is reported as 1.69. For the same compound, in data set [3], the solubility entry was “soluble”. For the same compound, in the data set with Escherichia coli [4], the IC50 is 125 µM.
As for `Nc1nc(=O)c2nc(CNc3ccc(C(=O)N[C@@H](CCC(=O)O)C(=O)O)cc3)cnc2[nH]1`, in the data set with Enterococcus faecalis [5], the result was Active.
`Nc1ccc(C(=O)O)cc1C(=O)c1ccccc1` registered a pKa in the data set “physchem [1]” of 4.34. Besides, the solubility result in data set [3] was “soluble”. For the same compound, the IC50 with Escherichia coli [4] was found to be 105 µM.
In the data set “physchem [1]”, `CCCOc1cc(N)ccc1C(=O)O` displayed a pKa of 4.96. The Rm in data set [2] turned out to be 1.75. Moreover, on Albumin, the “log(PB)” value amounted to 1.69. The solubility result in data set [3] is “soluble”. For the same compound, in the data set with Escherichia coli [4], the IC50 amounted to 140 µM.
`Nc1nc2c(c(=O)[nH]1)N=C(CNc1ccc(C(=O)O)cc1)CN2`: the result in the data set on Escherichia coli [8] and with Escherichia coli [9] was Active.
As for `Nc1ccc(C(=O)O)c(Cl)c1`, the pKa was 3.88 in “physchem [1]” and 3.93 in “physchem [6]”. This compound also had a Rm in data set [2] of 2.17. The inhibition entry in the data set with Escherichia coli [7] was “inactive”. In addition, the “log(PB)” value on Albumin was found to be 1.36. In addition, the IC50 in the data set on Escherichia coli [4] came to 45 µM.
For the compound `Nc1ccc(C(=O)O)c(O)c1` [AMINOSALICYLIC ACID], the values for the pKa in “physchem [1]” and in the data set “physchem [6]” were 3.52 and 3.62, respectively. The compound further gave a Rm in [2] of 1.92. In the data set with Escherichia coli [7], the inhibition result was “inactive”. Further, at Albumin, the “log(PB)” value was 1.57. The IC50 with Escherichia coli [4] turned out to be 25 µM.
Take `Nc1nc(O)c2c(n1)NCC(CNc1ccc(C(=O)O)cc1F)=N2`: the result in the data set on Escherichia coli [8] and with Escherichia coli [9] was Active.
For the compound `COc1cc(N)ccc1C(=O)O`, the pKa in the data set “physchem [1]” worked out at 5.04; in the data set “physchem [6]”, 5.1. Moreover, the “log(PB)” value at Albumin is listed as 1.26. Besides, in the data set with Escherichia coli [4], the IC50 came out at 100 µM.
Turning to `N#CSc1cc(C(=O)O)ccc1N`, the pKa in the data set “physchem [1]” stood at 4.52. Moreover, the “log(PB)” value on Albumin was determined as 1.68. Besides, the IC50 with Escherichia coli [4] turned out to be 190 µM.
Take `CCCCCCCOc1cc(N)ccc1C(=O)O`: in the data set “physchem [1]”, the pKa worked out at 5.3. Further, in [2], the Rm was determined as 3.77. Further, the solubility entry in [3] is listed as “soluble”. In the data set with Escherichia coli [4], the IC50 was determined as 90 µM.
In “physchem [1]”, `Nc1ccc(C(=O)O)c(F)c1` displayed a pKa of 4.13. The compound further yielded a Rm in [2] of 1.62. For the same compound, on Albumin, the “log(PB)” value came out at 1.27. Also, the IC50 with Escherichia coli [4] is 125 µM.
In turn, `Nc1ccc(C(=O)O)cc1[N+](=O)[O-]` displayed a pKa in “physchem [1]” of 3.96. The compound further showed a Rm in [2] of 3.11. The “log(PB)” value on Albumin is 1.89. In addition, the solubility entry in data set [3] is listed as “soluble”. Further, in the data set with Escherichia coli [4], the IC50 was 130 µM.
Take `Nc1nc(O)c2nc(CNc3ccc(C(=O)O)cc3)cnc2n1`: in the data set with Enterococcus faecalis [5], the outcome was Active.
In the data set “physchem [1]”, `CCCCCCOc1cc(C(=O)O)ccc1N` came in with a pKa of 4.47. Besides, the inhibition result with Escherichia coli [7] is “inactive”. Further, at Albumin, the “log(PB)” value was 1.97. The solubility result in data set [3] is “soluble”. Besides, in the data set on Escherichia coli [4], the IC50 was 85 µM.
With `CCCCCOc1cc(N)ccc1C(=O)O`, in the data set “physchem [1]”, the pKa was determined as 5.1. In addition, in data set [2], the Rm was 2.85. The “log(PB)” value on Albumin was determined as 1.76. Besides, the solubility entry in data set [3] is on record as “soluble”. In addition, the IC50 in the data set with Escherichia coli [4] was 135 µM.
For `Nc1ccc(C(=O)O)cc1Br`, the results for the pKa in the data set “physchem [1]” and in “physchem [6]” were 4.24 and 4.31, respectively. The same compound gave a Rm in [2] of 2.85. Also, on Albumin, the “log(PB)” value turned out to be 1.89. Besides, the IC50 with Escherichia coli [4] was found to be 110 µM.
Turning to `CC(C)CCOc1cc(N)ccc1C(=O)O`, in the data set “physchem [1]”, the pKa stood at 5.17. Further, in data set [2], the Rm turned out to be 2.7. The solubility result in [3] is “soluble”. Also, the IC50 in the data set on Escherichia coli [4] amounted to 125 µM.
Turning to `Cl.Nc1ccc(C(=O)O)c(Br)c1`, the values for the pKa in “physchem [1]” and in “physchem [6]” were 3.69 and 3.85, respectively. Moreover, the Rm in [2] is 2.38. Besides, the “log(PB)” value at Albumin is reported as 1.67. Moreover, the IC50 in the data set with Escherichia coli [4] came to 8 µM.
In “physchem [1]”, `Nc1ccc(C(=O)O)cc1Cl` registered a pKa of 4.35. Moreover, the Rm in data set [2] turned out to be 2.38. Also, on Albumin, the “log(PB)” value is recorded as 1.81. Besides, the IC50 in the data set on Escherichia coli [4] worked out at 100 µM.
On to `Nc1ccc(C(=O)O)c(C(=O)O)c1`, for which, on Albumin, the “log(PB)” value was found to be 0.45. Further, in the data set with Escherichia coli [4], the IC50 is 120 µM.
In the case of `Nc1nc(=O)c2nc(CNc3ccc(C(=O)O)c(Cl)c3)cnc2[nH]1`, the outcome in the data set on Enterococcus faecalis [5] was inactive. Besides, in the data set on Enterococcus faecalis [10], the “growth inhibition (GI)” value is “inactive”.
Compound `Cc1cc(C(=O)O)ccc1N` returned a pKa in the data set “physchem [1]” of 4.62. The compound also had a Rm in data set [2] of 1.6. Moreover, the “log(PB)” value at Albumin was 1.37. Further, in the data set on Escherichia coli [4], the IC50 worked out at 120 µM.
The compound `Nc1ccc(C(=O)O)cc1O` came in with a pKa in the data set “physchem [1]” of 4.59. Besides, the “log(PB)” value on Albumin was 1.27. In the data set with Escherichia coli [4], the IC50 was found to be 85 µM.
Turning to `Cc1cc(N)ccc1C(=O)O`, the pKa in the data set “physchem [1]” came to 4.83. In data set [2], this compound displayed a Rm of 1.73. The “log(PB)” value on Albumin is on record as 1.16. In the data set with Escherichia coli [4], the IC50 is 30 µM.
As for `Cl.Nc1ccc(C(=O)O)cc1N`, the pKa in the data set “physchem [1]” is 4.84. Also, the “log(PB)” value at Albumin was 0.95. The IC50 with Escherichia coli [4] turned out to be 40 µM.
Take `Nc1nc(O)c2c(n1)NCC(CNc1ccc(C(=O)O)c(Cl)c1)=N2`: the result in the data set with Escherichia coli [8] and in the data set with Escherichia coli [9] was Active.

One may read the pKa as the negative logarithm of the acid dissociation constant. Higher therefore signals a group that holds its proton tightly.

Source of the values: ChEMBL document CHEMBL3271943, “P-Aminobenzoic acid derivatives. Mode of action and structure-activity relationships in a cell-free system (Escherichia coli)” (J Med Chem, 1977).
